From patent publication US20250188075A1, “SUBSTITUTED HETEROCYCLIC CSNK1 INHIBITORS” (The Broad Institute, Inc., priority 2022, published 2025)

Columns and labels:
human CSNK1D = human CSNK1D (Homo sapiens (Human), UniProt P48730); assay: CSNK1D assay (ADP-Glo, 1 μM ATP); assay type: biochemical; conditions: median, read-out: CSNK1D IC50 [mol/l] (median)
Experimental: CSNK1D-inhibitory activity of compounds of the present invention in presence of 1 μM adenosine-tri-phosphate (ATP) was quantified employing the CSNK1D assay as described in the following paragraphs. In essence, the enzyme activity is measured by quantification of the adenosine-di-phosphate (ADP), which is generated as a co-product of the enzyme reaction, via the “ADP-Glo™ Kinase Assay” kit from the company Promega. This detection system works as follows: In a first step the ATP not consumed in the kinase reaction is quantitatively converted to CAMP employing an adenylate cyclase (“ADP-Glo-reagent”), then the adenylate cyclase is stopped and the ADP generated in the kinase reaction converted to ATP which generates in a luciferase-based reaction a glow-luminescence signal (“Kinase Detection Reagent”).
(§1) Recombinant fusion protein of N-terminal Glutathion-S-Transferase (GST) and full-length human CSNK1D, expressed by baculovirus infected insect cells and purified via Glutathion affinity chromatography, was purchased from Life Technologies (product no. PV3665) and used as enzyme. As substrate for the kinase reaction the biotinylated peptide Btn-Ahx-SGSEGDSESGEEEG (C-terminus in amide form) was used which can be purchased e.g. from the company Biosyntan (Berlin-Buch, Germany).
For the assay 50 nl of a 100-fold concentrated solution of the test compound in DMSO was pipetted into a white 1536-well microtiter plate (Greiner Bio-One, Frickenhausen, Germany), 2 μL of a solution of CSNK1D in aqueous assay buffer [50 mM HEPES pH 7.5, 10% (v/v) glycerol, 10 mM MgCl2, 50 mM NaCl, 1 mM dithiothreitol, 0.01% (w/v) bovine serum albumin, 0.01% (v/v) Triton X-100] were added and the mixture was incubated for 15 min at 22° C. to allow pre-binding of the test compounds to the enzyme before the start of the kinase reaction. Then the kinase reaction was started by the addition of 3 μL of a solution of ATP (1.67 μM=>final conc. in the 5 μL assay volume is 1 μM) and peptide substrate (50 μM=>final conc. in the 5 μL assay volume is 30 μM) in assay buffer and the resulting mixture was incubated for a reaction time of 30 min at 22° C. The concentration of CSNK1D was adjusted depending of the activity of the enzyme lot and was chosen appropriate to have the assay in the linear range, a typical concentration is about 0.5 ng/μL. The reaction was stopped by the addition of 2.5 μL of “ADP-Glo-reagent” (1:1.5 fold diluted with water) and the resulting mixture was incubated at 22° C. for 1 h to convert the ATP not consumed in the kinase reaction completely to CAMP. Subsequently 2.5 μL of the “kinase detection reagent” (1.2 fold more concentrated than recommended by the producer) were added, the resulting mixture was incubated at 22° C. for 1 h and then the luminescence measured with a suitable measurement instrument (e.g. Viewlux™ from Perkin-Elmer). The amount of emitted light was taken as a measure for the amount of ADP generated and thereby for the activity of the CSNK1D.
(§2) The data were normalised (enzyme reaction without inhibitor=0% inhibition, all other assay components but no enzyme=100% inhibition).

human CSNK1A1 = human CSNK1A1 (Homo sapiens (Human), UniProt P48729); assay: CSNK1A1 assay (ADP-Glo, 1 μM ATP); assay type: biochemical; conditions: median, read-out: CSNK1A1 Low ATP IC50 [mol/l] (median)
Experimental: CSNK1A1-inhibitory activity of compounds of the present invention in presence of 1 μM adenosine-tri-phosphate (ATP) was quantified employing the CSNK1A1 assay as described in the following paragraphs. In essence, the enzyme activity is measured by quantification of the adenosine-di-phosphate (ADP), which is generated as a co-product of the enzyme reaction, via the “ADP-Glo™ Kinase Assay” kit from the company Promega. This detection system works as follows: In a first step the ATP not consumed in the kinase reaction is quantitatively converted to CAMP employing an adenylate cyclase (“ADP-Glo-reagent”), then the adenylate cyclase is stopped and the ADP generated in the kinase reaction converted to ATP which generates in a luciferase-based reaction a glow-luminescence signal (“Kinase Detection Reagent”).
as §1, with “CSNK1A1,” for “CSNK1D,”, “PV4174)” for “PV3665)”, “biotin-Ahx-KRRRAL-pS-VASLPGL” for “Btn-Ahx-SGSEGDSESGEEEG”
For the assay 50 nl of a 100-fold concentrated solution of the test compound in DMSO was pipetted into a white 1536-well microtiter plate (Greiner Bio-One, Frickenhausen, Germany), 2 μL of a solution of CSNK1A1 in aqueous assay buffer [50 mM HEPES pH 7.5, 10% (v/v) glycerol, 10 mM MgCl2, 50 mM NaCl, 1 mM dithiothreitol, 0.01% (w/v) bovine serum albumin, 0.01% (v/v) Triton X-100] were added and the mixture was incubated for 15 min at 22° C. to allow pre-binding of the test compounds to the enzyme before the start of the kinase reaction. Then the kinase reaction was started by the addition of 3 μL of a solution of ATP (1.67 μM=>final conc. in the 5 μL assay volume is 1 μM) and peptide substrate (50 μM=>final conc. in the 5 μL assay volume is 30 μM) in assay buffer and the resulting mixture was incubated for a reaction time of 30 min at 22° C. The concentration of CSNK1A1 was adjusted depending of the activity of the enzyme lot and was chosen appropriate to have the assay in the linear range, a typical concentrations are about 0.0375 ng/μL. The reaction was stopped by the addition of 2.5 μL of “ADP-Glo-reagent” (1:1.5 fold diluted with water) and the resulting mixture was incubated at 22° C. for 1 h to convert the ATP not consumed in the kinase reaction completely to CAMP. Subsequently 2.5 μL of the “kinase detection reagent” (1.2 fold more concentrated than recommended by the producer) were added, the resulting mixture was incubated at 22° C. for 1 h and then the luminescence measured with a suitable measurement instrument (e.g. Viewlux™ from Perkin-Elmer). The amount of emitted light was taken as a measure for the amount of ADP generated and thereby for the activity of the CSNK1A1.
as §2

Sequence of human CSNK1D (P48730 whole entry): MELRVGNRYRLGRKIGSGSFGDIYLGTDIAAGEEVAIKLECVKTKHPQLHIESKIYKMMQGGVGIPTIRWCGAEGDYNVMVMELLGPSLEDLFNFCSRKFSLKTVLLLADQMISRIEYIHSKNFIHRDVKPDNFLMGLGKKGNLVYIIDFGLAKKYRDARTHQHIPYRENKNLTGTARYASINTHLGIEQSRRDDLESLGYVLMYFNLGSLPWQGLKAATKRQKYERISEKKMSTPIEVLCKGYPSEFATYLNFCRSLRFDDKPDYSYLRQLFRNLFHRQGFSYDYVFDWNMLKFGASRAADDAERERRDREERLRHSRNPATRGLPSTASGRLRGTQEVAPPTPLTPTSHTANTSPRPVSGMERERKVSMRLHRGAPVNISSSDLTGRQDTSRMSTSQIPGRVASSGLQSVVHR
Sequence of human CSNK1A1 (P48729 whole entry): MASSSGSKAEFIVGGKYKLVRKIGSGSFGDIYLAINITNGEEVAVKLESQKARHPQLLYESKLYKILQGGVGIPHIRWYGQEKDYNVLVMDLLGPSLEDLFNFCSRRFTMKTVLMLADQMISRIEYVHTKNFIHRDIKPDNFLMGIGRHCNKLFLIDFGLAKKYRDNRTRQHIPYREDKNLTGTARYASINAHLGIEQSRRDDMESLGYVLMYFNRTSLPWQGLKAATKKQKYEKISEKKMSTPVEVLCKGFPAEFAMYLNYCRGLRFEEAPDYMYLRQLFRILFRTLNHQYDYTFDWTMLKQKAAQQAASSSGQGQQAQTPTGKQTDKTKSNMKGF

IC50 (human CSNK1D) | IC50 (human CSNK1A1) | SMILES
3.44 nM | 1.1 nM | O=C(Cc1cnc2ccccc2n1)Nc1cc(-c2[nH]c3cccnc3c2-c2ccccn2)ccn1 [Example 6, N-[4-[3-(2-pyridyl)-^1H-pyrrolo[3,2-b]pyridin-2-yl]-2-pyridyl]-2-quinoxalin-2-yl-acetamide]
11.4 nM | 5.89 nM | O=C(Cc1cnc2ccccn12)Nc1cc(-c2[nH]c3cccnc3c2-c2ccccn2)ccn1 [Example 1, 2-imidazo[1,2-a]pyridin-3-yl-N-[4-[3-(2-pyridyl)-^1H-pyrrolo[3,2-b]pyridin-2-yl]-2-pyridyl]acetamide]
5.68 nM | 1.69 nM | Cc1cc(CC(=O)Nc2cc(-c3[nH]c4cccnc4c3-c3ccccn3)ccn2)on1 [Example 13, 2-(3-methylisoxazol-5-yl)-N-[4-[3-(2-pyridyl)-^1H-pyrrolo[3,2-b]pyridin-2-yl]-2-pyridyl]acetamide]
4.88 nM | 1.94 nM | Cc1cc(CC(=O)Nc2cc(-c3[nH]c4cccnc4c3-c3ccccn3)ccn2)n(C)n1 [Example 14]
4.93 nM | 1.88 nM | O=C(Cc1ccn(CC(F)(F)F)n1)Nc1cc(-c2[nH]c3cccnc3c2-c2ccccn2)ccn1 [Example 20, N-[4-[3-(2-pyridyl)-^1H-pyrrolo[3,2-b]pyridin-2-yl]-2-pyridyl]-2-[1-(2,2,2-trifluoroethyl)pyrazol-3-yl]acetamide]
4.84 nM | 1.47 nM | O=C(Cc1ccns1)Nc1cc(-c2[nH]c3cccnc3c2-c2ccccn2)ccn1 [Example 22, 2-isothiazol-5-yl-N-[4-[3-(2-pyridyl)-^1H-pyrrolo[3,2-b]pyridin-2-yl]-2-pyridyl]acetamide]
2.26 nM | 1.21 nM | O=C(Nc1cc(-c2[nH]c3ccc(F)nc3c2-c2ccccn2)ccn1)[C@@H](CC(F)F)c1ccc(F)cc1 [Example C2, reference compound]
5.01 nM | 1.81 nM | Cc1nc(CC(=O)Nc2cc(-c3[nH]c4cccnc4c3-c3ccccn3)ccn2)cs1 [Example 3, 2-(2-methylthiazol-4-yl)-N-[4-[3-(2-pyridyl)-^1H-pyrrolo[3,2-b]pyridin-2-yl]-2-pyridyl]acetamide]
8.44 nM | 2.79 nM | Cc1nc(CC(=O)Nc2cc(-c3[nH]c4cccnc4c3-c3ccccn3)ccn2)co1 [Example 25, 2-(2-methyloxazol-4-yl)-N-[4-[3-(2-pyridyl)-^1H-pyrrolo[3,2-b]pyridin-2-yl]-2-pyridyl]acetamide]
6.48 nM | 2.21 nM | Cn1nc(CC(=O)Nc2cc(-c3[nH]c4cccnc4c3-c3ccccn3)ccn2)cc1C1CC1 [Example 29, 2-(5-cyclopropyl-1-methyl-pyrazol-3-yl)-N-[4-[3-(2-pyridyl)-^1H-pyrrolo[3,2-b]pyridin-2-yl]-2-pyridyl]acetamide]
